Tests used:
[1] = test system: whole blood sample; assay: Visual inspection of stored whole blood sample for hemolysis; format: cell-based, human
Source text: Skilled practitioners will appreciate the hemolyzed samples are an obvious visual clue that damage to blood cells has occurred, either during the collection, transport, or storage of blood samples. Although hemolysis is not necessarily detrimental to any one clinical assay, it is a well known interference for some tests, and thus it is preferable to avoid causing hemolysis. Hemolysis can be measured by visual scale (e.g., mild or slightly pink, moderate or noticeably red, or severe or dark red). Hemolysis can also be measured by spectroscopic measurement of the red color of the hemoglobin itself, and can be reported by the concentration of hemoglobin released into the serum or plasma (e.g., such that less than about 20 mg/dL concentration of released hemoglobin, or to an extent that the hemoglobin concentration cannot be measured visually or by spectroscopy represents “minor or negligible” hemolysis, about 20 to about 100 mg/dL represents “mild” hemolysis, about 100 to about 300 represents “moderate” hemolysis, or greater than about 300 mg/dL represents “severe” hemolysis).
(§1) The results are shown in Table 5 which lists additives alone or in combination that were spiked into freshly drawn whole blood samples. […] For some of the conditions tested, only a subset of these three parameters was recorded.

[2] = test system: whole blood sample; assay: Visual inspection of stored whole blood sample for clotted, insoluble material; parameters: species or system human
Experimental: (§2) Relative stability of platelets was examined with respect to a range of concentrations of variegin (SEQ ID NO:1). Experiments were performed as described above, using either collagen or adenosine diphosphate (ADP) as agonists, all per manufacturer's recommended protocols. Table 2 lists a qualitative assessment of stability, namely how long after initially drawing the blood was platelet aggregation measureable above the effective instrument baseline, the time to first visual observation of clotted, insoluble material in the whole blood sample, and an assessment of the severity or extent of the presence of this insoluble material was also recorded.
These peptides were used as the blood stabilization agent, and were spiked into blood immediately after collection into an empty, evacuated blood collection tube, achieving a final concentration of 150 μM. The blood was allowed to dwell in a whole-blood state at room temperature, until assayed for platelet aggregation potential, all as described in Example 1. Agonists used included collagen and ADP, following manufacturer's instructions. Table 4 lists a qualitative assessment of stability, namely how long after initially drawing the sample was platelet aggregation measureable above the effective instrument baseline. Additionally, the time to first visual observation of clotted, insoluble material in the whole blood sample, and an assessment of the severity or extent of the presence of this insoluble material was also recorded. In some cases, only visual characterization of the amount of insoluble material was reported, without having performed any platelet aggregation measurements.
as §1

[3] = test system: platelets; assay: Whole blood impedance aggregometry (Multiplate): platelet aggregation after room temperature storage of drawn blood; format: cell-based, human; conditions: for Time after blood draw where aggregation was still measurable above baseline: Table 5, collagen and/or ADP
Source text: The blood was allowed to stand at room temperature, in undisturbed aliquots, until tested at the times indicated. Samples were inverted several times immediately prior to testing, to re-suspend blood cells that naturally settle over time.
Measurements: Testing of platelet function (which in this experiment, was aggregation activity) was done using the Multiplate instrument (Verum Diagnostics, Munich, Germany), which uses whole blood as the sample and an increase in impedance as the measurement of platelet aggregation. The instrument was used per manufacturer's instructions. Briefly, 300 microliters of isotonic saline was warmed in each reaction cuvette, and to this was added 300 microliters of the whole blood sample. In reactions where aspirin or other platelet antagonists (inhibitors) were added in vitro, 20 microliters (μL) of a stock solution of aspirin was spiked into the samples. The aggregation reaction was initiated by addition of a platelet agonist, in this case collagen, at 3.2 μg/ml and volume (20 μl) per manufacturer's instructions. Upon addition of the collagen, the impedance measurements began automatically, and were continued for 6 minutes, representing the full course along the x-axis in the graphs shown in FIG. 2. The graphs show platelet aggregation, as reported by impedance, as an arbitrary unitless measurement on the y-axis, over the 6-minute run time on the x-axis. Traces shown are raw platelet aggregation data delivered from the instrument. […] Representative data are shown for blood that dwells at room temperature after the initial draw for 1 hr, 24 hr, 48 hr, and 72 hr. Data are shown for the blood itself, as well for blood pre-treated with aspirin to inhibit platelet function immediately prior to testing.
The experiments were performed as described in Example 1. In this case, the data are plotted as a function of time that the blood sample dwells outside of the body (x-axis) versus platelet function as shown as the area under the curve (AUC) as one representation of the platelet aggregation signal. AUC is the integrated signal from the raw data traces shown in Example 1, and also is reported as a unitless measurement. The effective background level of the instrument is drawn as a dashed line across the bottom of the graph. Any AUC measurement of aggregation at or below this level was considered so weak as to be unreportable, essentially representing a “null” data level.
as §2
These peptides were used as the blood stabilization agent, and were spiked into blood immediately after collection into an empty, evacuated blood collection tube, achieving a final concentration of 150 μM. The blood was allowed to dwell in a whole-blood state at room temperature, until assayed for platelet aggregation potential, all as described in Example 1. Agonists used included collagen and ADP, following manufacturer's instructions.

[4] = biological target: thrombin (Homo sapiens, UniProt P00734); conditions: reported in Koh; cited from earlier work
[5] = relatively high concentration, used alone

For `C[C@@H]1CCN(C(=O)[C@H](CCCN=C(N)N)NS(=O)(=O)c2cccc3c2NC[C@H](C)C3)[C@@H](C(=O)O)C1` [Argatroban, (2R,4R)-1-[(2S)-5-(diaminomethylideneamino)-2-[[(3R)-3-methyl-1,2,3,4-tetrahydroquinolin-8-yl]-sulfonylamino]pentanoyl]-4-methyl-piperidine-2-carboxylic acid, reference compound], the “Visual inspection for hemolysis” value ([1]; Table 5, additive alone at 100 μM) was “Extensive”, the hemolysis [1, 5] was “extensive amounts of hemolysis” and the onset of clotting [2, 5] was “faster onset of clotting”. The “Time after blood draw where aggregation was still measurable above baseline” value ([3]; additive alone at 50 μM) was 30 h, the “Time after blood draw where aggregation was still measurable above baseline” value ([3]; additive alone at 75 μM) was 24 h and the “Time after blood draw where aggregation was still measurable above baseline” value ([3]; additive alone at 100 μM) was 24 h. For the same compound, the “time for stability of the sample for platelet aggregation measurements” value [3, 5] was “less time for stability of the sample for platelet aggregation measurements”.

For “MHKTAPPFDFEAIPEEYLDDES (Synthetic Peptide Variegin Fragment) [Ct22]”, the “time after blood draw to solid clotting of the sample” value ([2]; peptide 150 μM, room temperature) is listed as “clots solidly within one hour” and the “thrombin inhibition for therapeutic purposes” value [4] is listed as “effective thrombin inhibitor”.
